Measured values taken from ChEMBL document CHEMBL3351492, “Novel 3,6-bis(imidazolidine)acridines as effective photosensitizers for photodynamic therapy” (Bioorg Med Chem, 2014).
Activity calls are given as the source filed them. The rule behind the calls is not given here.

Columns and labels:
[1] = test system: A2780; assay: Drug uptake in human A2780 cell nucleus at 0.5 uM irradiated for 1 hr followed by incubated with 0.1 uM SytoRed for 35 mins; format: ADME, cell-based; details: a2780, 1 h
[2] = test system: A2780; assay: Drug uptake in human A2780 cell mitochondria assessed per focused cells at 3 uM irradiated for 1 hr followed by incubated with 0.1 uM MitoRed for 15 mins; format: ADME, cell-based; details: a2780, 1 h
[3] = test system: A2780; assay: Cell cycle arrest in human A2780 cells assessed as cells at sub G0 phase at 1 uM after 4 hrs in dark by PI staining/flow cytometry; format: functional
[4] = test system: A2780; assay: Cytotoxicity against human A2780 cells assessed as inhibition of cell viability for 72 hrs in 1.05 J/cm'2 UV-A irradiation by MTT assay; format: functional, cell-based; details: A2780, light or radiation study
[5] = Cytotoxicity against mouse NIH/3T3 cells assessed as inhibition of cell viability for 72 hrs in dark by MTT assay; format: cell-based; details: NIH3T3, 72 h
[6] = test system: A2780; assay: Drug uptake in human A2780 cell mitochondria assessed per focused cells at 0.5 uM for 1 hr in dark by incubated with 0.1 uM MitoRed for 15 mins; format: ADME, cell-based; details: a2780, 1 h
[7] = test system: A2780; assay: Cytotoxicity against human A2780 cells assessed as inhibition of cell viability for 48 hrs in 1.05 J/cm'2 UV-A irradiation by MTT assay; format: functional, cell-based; details: A2780, light or radiation study
[8] = test system: A2780; assay: Drug uptake in human A2780 cell lysosome at 0.5 uM irradiated for 1 hr followed by incubated with LysoTracker relative to non-irradiated cells; format: ADME, cell-based; details: a2780, 1 h
[9] = Cytotoxicity against mouse NIH/3T3 cells assessed as inhibition of cell viability for 72 hrs in 1.05 J/cm'2 UV-A irradiation by MTT assay; format: cell-based; details: NIH3T3, light or radiation study
[10] = test system: A2780; assay: Genotoxicity in human A2780 cells assessed as DNA damage at 0.05 to 1 uM for 1 hr in 1.05 J/cm'2 UV-A irradiation measured after 12 hrs by comet assay; format: toxicity, cell-based; details: a2780, 1 h
[11] = test system: A2780; assay: Induction of oxidative stress in human A2780 cells assessed as reactive oxygen species production at 0.5 uM for 1 hr in 1.05 J/cm'2 UV-A irradiation by DHE assay; format: functional, cell-based
[12] = test system: A2780; assay: Drug uptake in human A2780 cell nucleus at 3 uM irradiated for 1 hr followed by incubated with 0.1 uM SytoRed for 35 mins; format: ADME, cell-based; details: a2780, 1 h
[13] = test system: A2780; assay: Cell cycle arrest in human A2780 cells assessed as cells at S phase at 1 uM for 1 hr in 1.05 J/cm'2 UV-A irradiation measured after 4 hrs by PI staining/flow cytometry; format: functional
[14] = test system: A2780; assay: Induction of apoptosis in human A2780 cells assessed as volume and condensation of DNA chromatin at 1 uM for 1 hr in 1.05 J/cm'2 UV-A irradiation measured after 4 hrs by fluorescence microscopy; format: functional, cell-based
[15] = Cytotoxicity against mouse NIH/3T3 cells assessed as inhibition of cell viability for 48 hrs in 1.05 J/cm'2 UV-A irradiation by MTT assay; format: cell-based; details: NIH3T3, light or radiation study
[16] = test system: A2780; assay: Cytotoxicity against human A2780 cells assessed as inhibition of cell viability for 72 hrs in dark by MTT assay; format: functional, cell-based; details: A2780, 72 h
[17] = test system: A2780; assay: Drug uptake in human A2780 cell lysosome assessed per focused cells at 3 uM irradiated for 1 hr followed by incubated with LysoTracker; format: ADME, cell-based; details: a2780, 1 h
[18] = test system: A2780; assay: Induction of apoptosis in human A2780 cells assessed as effect on cell morphology at 1 uM for 1 hr in dark measured after 4 hrs by fluorescence microscopy; format: functional, cell-based
[19] = test system: A2780; assay: Induction of apoptosis in human A2780 cells assessed as DNA ladder formation at 1 uM after 4 hrs in dark by agarose gel; format: functional, cell-based
[20] = test system: A2780; assay: Induction of apoptosis in human A2780 cells assessed as DNA ladder formation at 1 uM for 1 hr in 1.05 J/cm'2 UV-A irradiation measured after 4 hrs by agarose gel; format: functional, cell-based
[21] = Cytotoxicity against mouse NIH/3T3 cells assessed as inhibition of cell viability for 48 hrs in dark by MTT assay; format: cell-based; details: NIH3T3, 48 h
[22] = test system: A2780; assay: Drug uptake in human A2780 cell autophagic vacoules at 0.5 uM irradiated for 1 hr followed by incubated with LysoTracker relative to non-irradiated cellsin presence of MDC; format: ADME, cell-based; details: a2780, 1 h
[23] = test system: L1210; assay: Cytotoxicity against mouse L1210 cells assessed as inhibition of cell viability for 72 hrs in 1.05 J/cm'2 UV-A irradiation by MTT assay; format: functional, cell-based; details: L1210, light or radiation study
[24] = test system: A2780; assay: Drug uptake in human A2780 cell mitochondria assessed per focused cells at 0.5 uM irradiated for 1 hr followed by incubated with 0.1 uM MitoRed for 15 mins; format: ADME, cell-based; details: a2780, 1 h
[25] = test system: A2780; assay: Cytotoxicity against human A2780 cells assessed as inhibition of cell viability for 48 hrs in dark by MTT assay; format: functional, cell-based; details: A2780, 48 h
[26] = test system: A2780; assay: Cell cycle arrest in human A2780 cells assessed as cells at sub G0 phase at 1 uM for 1 hr in 1.05 J/cm'2 UV-A irradiation measured after 4 hrs by PI staining/flow cytometry; format: functional
[27] = test system: L1210; assay: Cytotoxicity against mouse L1210 cells assessed as inhibition of cell viability for 48 hrs in 1.05 J/cm'2 UV-A irradiation by MTT assay; format: functional, cell-based; details: L1210, light or radiation study
[28] = test system: A2780; assay: Induction of apoptosis in human A2780 cells assessed as blebbing of cell membrane at 1 uM for 1 hr in 1.05 J/cm'2 UV-A irradiation measured after 24 hrs by fluorescence microscopy; format: functional, cell-based

Structure (SMILES)	IC50 [4]	IC50 [7]	Activity [10]	Activity [11]	IC50 [16]	IC50 [23]	IC50 [25]	IC50 [27]	also measured
CCCCCN1C(=O)CN/C1=N\c1ccc2cc3ccc(/N=C4\NCC(=O)N4CCCCC)cc3nc2c1.Cl	1090 nM	1430 nM	Non-toxic	Active	13800 nM	590 nM	19500 nM	640 nM	Drug uptake [1]: Not Active; Drug uptake [2]: 7%; Activity [3]: 1.42%; IC50 [5]: > 50000 nM; Drug uptake [6]: 7%; Drug uptake [8]: 24%; IC50 [9]: 28400 nM; Drug uptake [12]: Not Active; Activity [13]: 43%; Activity [14]: Active; IC50 [15]: > 30000 nM; Drug uptake [17]: 6%; Activity [18]: inactive; Activity [19]: inactive; Activity [20]: Active; IC50 [21]: > 50000 nM; Drug uptake [22]: Active; Drug uptake [24]: 2%; Activity [26]: 7.69%; Activity [28]: Active
Nc1ccc2cc3ccc(N)cc3nc2c1	100 nM	330 nM			180 nM		480 nM		
CCCCCCN1C(=O)CN/C1=N\c1ccc2cc3ccc(/N=C4\NCC(=O)N4CCCCCC)cc3nc2c1.Cl	1260 nM	1580 nM	Non-toxic	Active	9580 nM	640 nM	15700 nM	770 nM	
